{"source": "patent US20160130443A1", "about": "“PHTHALOCYANINE DYE USED FOR COLOR FILTER OF A LCD” (DOW GLOBAL TECHNOLOGIES LLC, priority 2013, published 2016)", "format_in_all_cases": "physicochemical", "key": {"[1]": {"test": "Thermal stability of films (chromaticity difference before and after hard baking)", "details": "for Thermal stability of a film at 230° C. (ΔEab): film with acrylic resin baked at 230° C. under air for 1 hour, smaller = better heat resistance; for Thermal stability (in words): summary referring to Table 1", "procedure": "The obtained dry film was baked at 230° C. under air for 1 hour to evaluate thermal stability of the film. Optical performance before and after baking (ΔEab value) was 1.6. A smaller ΔEab value indicates better heat resistance.\n(4) Thermal Stability of Films (Chromaticity):\nThe wet film after spin coating is dried in oven at 90° C. for 30 minutes and then soft baked at 150° C. for 15 minutes. The chromaticity coordinates (L, a, b) are recorded with UltraScan Pro (Hunterlab) colorimeter. D65 light source is used and results are based on CIE Lab coordinates. After that the film is hard baked at target temperature (230° C.) for 1 hour and the new chromaticity coordinates (L′, a′, b′) are recorded with the method above. The thermal stability of a film is indicated by the difference of chromaticity coordinate before and after hard baking represented by the following formula;\nΔE=√{square root over ((L−L′)^2+(a−a′)^2+(b−b′)^2)}"}, "[2]": {"test": "Solubility of dye in organic solvent at 25° C."}, "[3]": {"test": "Thermal stability of dyes (mass loss measured by TGA)", "details": "air atmosphere", "procedure": "(1) Thermal Stability of Dyes (Mass Loss Measured by TGA):\nThe thermal stability of dye itself was determined by the mass loss of dye measured by TGA under air atmosphere at 230° C. for 1 hour. This evaluation reflects chemical stability of the dye itself"}}, "data": [{"molecule": "CNc1ccc(Nc2cccc(C)c2)c2c1C(=O)c1ccccc1C2=O", "note": "[compound 1, C.I. solvent blue 63]", "values": [{"measurement": "Thermal stability of a film at 230° C. (ΔEab)", "setting": "[1]", "value": 18.4}, {"measurement": "Thermal stability (in words)", "setting": "[1]", "value": "very poor thermal stability"}, {"measurement": "Solubility in PGMEA at 25° C. (wt %)", "setting": "[2]", "value": 1.23, "unit": "wt %"}, {"measurement": "Solubility in cyclohexanone at 25° C. (wt %)", "setting": "[2]", "value": 3.0, "unit": "wt %"}, {"measurement": "Mass loss measured by TGA at 230° C. for 1 hour (%)", "setting": "[3]", "value": 14.04, "unit": "%"}]}, {"molecule": "CCCCOc1ccc(OCCCC)c2c1-c1nc-2nc2[nH]c(nc3nc(nc4[nH]c(n1)c1c(OCCCC)ccc(OCCCC)c41)-c1c(OCCCC)ccc(OCCCC)c1-3)c1c(OCCCC)ccc(OCCCC)c21", "note": "[compound 3]", "values": [{"measurement": "Thermal stability of a film at 230° C. (ΔEab)", "setting": "[1]", "value": 21.5}, {"measurement": "Thermal stability (in words)", "setting": "[1]", "value": "very poor thermal stability"}, {"measurement": "Solubility in PGMEA at 25° C. (wt %)", "setting": "[2]", "value": 0.17, "unit": "wt %"}, {"measurement": "Solubility in cyclohexanone at 25° C. (wt %)", "setting": "[2]", "value": 9.0, "unit": "wt %"}, {"measurement": "Mass loss measured by TGA at 230° C. for 1 hour (%)", "setting": "[3]", "value": 13.08, "unit": "%"}]}, {"molecule": "c1ccc2c(c1)C1=Nc3c4ccccc4c4[n]3[Cu-2]35[n]6c(c7ccccc7c6=NC6=[N+]3C(=N4)c3ccccc36)=NC2=[N+]15", "note": "[compound 4]", "values": [{"measurement": "Solubility in PGMEA at 25° C. (wt %)", "setting": "[2]", "value": "insoluble"}, {"measurement": "Solubility in cyclohexanone at 25° C. (wt %)", "setting": "[2]", "value": "insoluble"}, {"measurement": "Solubility in cyclohexanone and PGMEA (in words)", "setting": "[2]; summary referring to Table 1", "value": "insoluble"}, {"measurement": "Mass loss measured by TGA at 230° C. for 1 hour (%)", "setting": "[3]", "value": 0.02, "unit": "%"}]}, {"molecule": "C.I. disperse red 343 [compound 2]", "values": [{"measurement": "Thermal stability of a film at 230° C. (ΔEab)", "setting": "[1]", "value": 13.3}, {"measurement": "Thermal stability (in words)", "setting": "[1]", "value": "very poor thermal stability"}, {"measurement": "Solubility in PGMEA at 25° C. (wt %)", "setting": "[2]", "value": 1.98, "unit": "wt %"}, {"measurement": "Solubility in cyclohexanone at 25° C. (wt %)", "setting": "[2]", "value": 4.0, "unit": "wt %"}, {"measurement": "Mass loss measured by TGA at 230° C. for 1 hour (%)", "setting": "[3]", "value": 9.56, "unit": "%"}]}]}
